Read-outs that look alike come from different tables or passages of the source. Values belong to the molecule of their own block, whether it stands above or below them.
Key:
[1] = literature reports; cited from earlier work
[2] = Brain blood barrier penetration assay (short oral absorption model with in vitro blood and brain binding); assay type: in vivo; settings: male Han Wistar rats, oral 2 mg/kg in 1% methylcellulose; for Kp uu: rat
Text: Both Kp,uu brain and Kp,uu CSF should be the main parameters measured and optimized in CNS drug discovery (Di L et al., Journal of Medicinal Chemistry [2013], 56: 2-12). Kp,uu brain, the relationship between concentrations of unbound drug in brain and in blood, predicts drug action on metastatic tumors in brain Leptomeningeal metastasis (LM) results from metastatic spread of cancer to the leptomeninges, giving rise to central nervous system dysfunction. Kp,uu CSF represents the distribution of drug in CSF as compared to that in blood, which drives drug response during leptomeningeal metastasis treatment.
In vitro blood and brain binding assay was carried out on a HT-Dialysis plate (Gales Ferry, Conn.) with semi-permeable membrane. Diluted blood (1:1 with DPBS pH7.4) and brain homogenate (1:3 with DPBS pH7.4) were spiked with 5 μM test compound (in triplicate) and dialyzed against equal volume of 150 μL 100 mM PBS buffer (pH7.4) at 37° C. for 4 hours in a slowly rotated plate. At the end of incubation, a 50 μL aliquot from the receiver side and a […] from the donor chamber were taken. The 5 μL sample was further diluted with 45 μL of blank blood or brain homogenate. Paired samples were matrix-matched with either buffer or blank blood/brain homogenate and mixed for 2 min, and then precipitated with 150 μL cold acetonitrile with 100 ng/mL tolbutamide as internal standard. After centrifuging at 4000 rpm for 20 min, supernatant was diluted with 0.1% formic acid aqueous solution and analyzed for LC/MS/MS (API 4000, Applied Biosystems, Foster City). […]. D is dilution factor.
A Short oral absorption (SOA) model is an in-vivo screening model to identify brain penetration of a compound. Six male Han Wistar rats purchased from Beijing Vital River were orally dosed with the compound at 2 mg/kg in 1% methylcellulose. At 0.25, 0.5, 1, 2, 4 and 7 hour post-dose, cerebral spinal fluid (CSF) was collected from cisterna magna, and blood samples (>60 μL/time point/each site) were collected via cardiac puncture, into separate EDTA […] tubes, and then immediately diluted with 3-fold volume of water. Brain tissue was harvested and homogenized in 3× volume of 100 mM phosphate buffered saline (pH7.4). All samples were stored at ˜−70° C. prior to LC/MS/MS analysis.
Standards were prepared by spiking blank blood, brain homogenate and artificial CSF covering 0.2 to 500 ng/mL. Homogenized brain tissue along with blood samples were precipitated by adding 3-fold volume of cold acetonitrile containing internal standard (40 ng/mL Dexamethasone and 40 ng/mL Diclofenac), and 10 μL of CSF samples were precipitated with 100 μL of cold acetonitrile containing internal standard. After 2 min vortex and 5 min centrifugation at 14,000 rpm, supernatant was analyzed by LC/MS/MS (API 4000, Applied Biosystems, Foster City). Two sets of standard curves were run at the beginning and end of each batch from blood sample analysis. For brain and CSF samples, one standard curve was analyzed along with test samples.
Total brain levels, expressed as brain/blood ratio (Kp,brain) were measured by AUCbrain/AUCblood in rodents after oral administration. Free fraction of test compound in biological matrix was determined by in vitro blood and brain binding assay. Kp,uu brain and Kp,uu CSF were calculated by the following equation: Kp,uu brain=AUCbrain/AUCblood×(fu,brain/fu.blood) and Kp,uu CSF=AUCCSF/(AUCblood×fu.blood).

SMILES: CN(C)C/C=C/C(=O)Nc1cc2c(Nc3ccc(F)c(Cl)c3)ncnc2cc1O[C@H]1CCOC1 [afatinib]
adverse effects, such as skin rash and diarrhoea, share of NSCLC patients treated [1]: > 90%

SMILES: COc1cc2ncnc(Nc3cccc(Cl)c3F)c2cc1OC(=O)N1CCN(C)C[C@H]1C [Example 1, 4-[(3-Chloro-2-fluorophenyl)amino]-7-methoxyquinazolin-6-yl (2R)-2,4-dimethylpiperazine-1-carboxylate]
Kp uu ([2]; male, Han Wistar, in vivo, po, 2 mg/kg, AUCCSF/(AUCblood x fu,blood), read-out: Kp, uu CSF): 1 to 1.3 | Kp uu ([2]; male, Han Wistar, in vivo, po, 2 mg/kg, AUCbrain/AUCblood x (fu,brain/fu,blood), read-out: Kp, uu brain): 0.8 to 1.3

Kp uu ([2]; CSF / blood, AUCCSF/(AUCblood x fu,blood), read-out: Kp, uu CSF): 2.6
SMILES: COc1cc2ncnc(Nc3cccc(Cl)c3F)c2cc1OC(=O)N1CCN(C)C[C@@H]1C [Example 3, 4-[(3-Chloro-2-fluorophenyl)amino]-7-methoxyquinazolin-6-yl (2S)-2,4-dimethylpiperazine-1-carboxylate]

Kp, uu CSF ([2]; AUCCSF/(AUCblood x fu,blood)): Below quantification limit | Kp uu ([2]; AUCbrain/AUCblood x (fu,brain/fu,blood), read-out: Kp, uu brain): 0.13
SMILES: CNC(=O)CN1CCC(Oc2cc3c(Nc4cccc(Cl)c4F)ncnc3cc2OC)CC1 [sapitinib]

SMILES: COc1cc2ncnc(Nc3ccc(F)c(Cl)c3)c2cc1NC(=O)/C=C/CN1CCCCC1 [dacomitinib]
adverse effects, such as skin rash and diarrhoea, share of NSCLC patients treated [1]: > 90%

Source: patent US20180016259A1, “QUINAZOLINE INHIBITORS OF ACTIVATING MUTANT FORMS OF EPIDERMAL GROWTH FACTOR RECEPTOR” (AstraZeneca AB, priority 2013, published 2018)
